The target of this assay is Apolipoprotein B-100 (Homo sapiens, UniProt P04114). Put plainly: Inhibition of apolipoprotein B (apoB) secreted by human hepatoma cells (Hep G2) […].
Sequence of Apolipoprotein B-100 (P04114 whole entry C1422Y): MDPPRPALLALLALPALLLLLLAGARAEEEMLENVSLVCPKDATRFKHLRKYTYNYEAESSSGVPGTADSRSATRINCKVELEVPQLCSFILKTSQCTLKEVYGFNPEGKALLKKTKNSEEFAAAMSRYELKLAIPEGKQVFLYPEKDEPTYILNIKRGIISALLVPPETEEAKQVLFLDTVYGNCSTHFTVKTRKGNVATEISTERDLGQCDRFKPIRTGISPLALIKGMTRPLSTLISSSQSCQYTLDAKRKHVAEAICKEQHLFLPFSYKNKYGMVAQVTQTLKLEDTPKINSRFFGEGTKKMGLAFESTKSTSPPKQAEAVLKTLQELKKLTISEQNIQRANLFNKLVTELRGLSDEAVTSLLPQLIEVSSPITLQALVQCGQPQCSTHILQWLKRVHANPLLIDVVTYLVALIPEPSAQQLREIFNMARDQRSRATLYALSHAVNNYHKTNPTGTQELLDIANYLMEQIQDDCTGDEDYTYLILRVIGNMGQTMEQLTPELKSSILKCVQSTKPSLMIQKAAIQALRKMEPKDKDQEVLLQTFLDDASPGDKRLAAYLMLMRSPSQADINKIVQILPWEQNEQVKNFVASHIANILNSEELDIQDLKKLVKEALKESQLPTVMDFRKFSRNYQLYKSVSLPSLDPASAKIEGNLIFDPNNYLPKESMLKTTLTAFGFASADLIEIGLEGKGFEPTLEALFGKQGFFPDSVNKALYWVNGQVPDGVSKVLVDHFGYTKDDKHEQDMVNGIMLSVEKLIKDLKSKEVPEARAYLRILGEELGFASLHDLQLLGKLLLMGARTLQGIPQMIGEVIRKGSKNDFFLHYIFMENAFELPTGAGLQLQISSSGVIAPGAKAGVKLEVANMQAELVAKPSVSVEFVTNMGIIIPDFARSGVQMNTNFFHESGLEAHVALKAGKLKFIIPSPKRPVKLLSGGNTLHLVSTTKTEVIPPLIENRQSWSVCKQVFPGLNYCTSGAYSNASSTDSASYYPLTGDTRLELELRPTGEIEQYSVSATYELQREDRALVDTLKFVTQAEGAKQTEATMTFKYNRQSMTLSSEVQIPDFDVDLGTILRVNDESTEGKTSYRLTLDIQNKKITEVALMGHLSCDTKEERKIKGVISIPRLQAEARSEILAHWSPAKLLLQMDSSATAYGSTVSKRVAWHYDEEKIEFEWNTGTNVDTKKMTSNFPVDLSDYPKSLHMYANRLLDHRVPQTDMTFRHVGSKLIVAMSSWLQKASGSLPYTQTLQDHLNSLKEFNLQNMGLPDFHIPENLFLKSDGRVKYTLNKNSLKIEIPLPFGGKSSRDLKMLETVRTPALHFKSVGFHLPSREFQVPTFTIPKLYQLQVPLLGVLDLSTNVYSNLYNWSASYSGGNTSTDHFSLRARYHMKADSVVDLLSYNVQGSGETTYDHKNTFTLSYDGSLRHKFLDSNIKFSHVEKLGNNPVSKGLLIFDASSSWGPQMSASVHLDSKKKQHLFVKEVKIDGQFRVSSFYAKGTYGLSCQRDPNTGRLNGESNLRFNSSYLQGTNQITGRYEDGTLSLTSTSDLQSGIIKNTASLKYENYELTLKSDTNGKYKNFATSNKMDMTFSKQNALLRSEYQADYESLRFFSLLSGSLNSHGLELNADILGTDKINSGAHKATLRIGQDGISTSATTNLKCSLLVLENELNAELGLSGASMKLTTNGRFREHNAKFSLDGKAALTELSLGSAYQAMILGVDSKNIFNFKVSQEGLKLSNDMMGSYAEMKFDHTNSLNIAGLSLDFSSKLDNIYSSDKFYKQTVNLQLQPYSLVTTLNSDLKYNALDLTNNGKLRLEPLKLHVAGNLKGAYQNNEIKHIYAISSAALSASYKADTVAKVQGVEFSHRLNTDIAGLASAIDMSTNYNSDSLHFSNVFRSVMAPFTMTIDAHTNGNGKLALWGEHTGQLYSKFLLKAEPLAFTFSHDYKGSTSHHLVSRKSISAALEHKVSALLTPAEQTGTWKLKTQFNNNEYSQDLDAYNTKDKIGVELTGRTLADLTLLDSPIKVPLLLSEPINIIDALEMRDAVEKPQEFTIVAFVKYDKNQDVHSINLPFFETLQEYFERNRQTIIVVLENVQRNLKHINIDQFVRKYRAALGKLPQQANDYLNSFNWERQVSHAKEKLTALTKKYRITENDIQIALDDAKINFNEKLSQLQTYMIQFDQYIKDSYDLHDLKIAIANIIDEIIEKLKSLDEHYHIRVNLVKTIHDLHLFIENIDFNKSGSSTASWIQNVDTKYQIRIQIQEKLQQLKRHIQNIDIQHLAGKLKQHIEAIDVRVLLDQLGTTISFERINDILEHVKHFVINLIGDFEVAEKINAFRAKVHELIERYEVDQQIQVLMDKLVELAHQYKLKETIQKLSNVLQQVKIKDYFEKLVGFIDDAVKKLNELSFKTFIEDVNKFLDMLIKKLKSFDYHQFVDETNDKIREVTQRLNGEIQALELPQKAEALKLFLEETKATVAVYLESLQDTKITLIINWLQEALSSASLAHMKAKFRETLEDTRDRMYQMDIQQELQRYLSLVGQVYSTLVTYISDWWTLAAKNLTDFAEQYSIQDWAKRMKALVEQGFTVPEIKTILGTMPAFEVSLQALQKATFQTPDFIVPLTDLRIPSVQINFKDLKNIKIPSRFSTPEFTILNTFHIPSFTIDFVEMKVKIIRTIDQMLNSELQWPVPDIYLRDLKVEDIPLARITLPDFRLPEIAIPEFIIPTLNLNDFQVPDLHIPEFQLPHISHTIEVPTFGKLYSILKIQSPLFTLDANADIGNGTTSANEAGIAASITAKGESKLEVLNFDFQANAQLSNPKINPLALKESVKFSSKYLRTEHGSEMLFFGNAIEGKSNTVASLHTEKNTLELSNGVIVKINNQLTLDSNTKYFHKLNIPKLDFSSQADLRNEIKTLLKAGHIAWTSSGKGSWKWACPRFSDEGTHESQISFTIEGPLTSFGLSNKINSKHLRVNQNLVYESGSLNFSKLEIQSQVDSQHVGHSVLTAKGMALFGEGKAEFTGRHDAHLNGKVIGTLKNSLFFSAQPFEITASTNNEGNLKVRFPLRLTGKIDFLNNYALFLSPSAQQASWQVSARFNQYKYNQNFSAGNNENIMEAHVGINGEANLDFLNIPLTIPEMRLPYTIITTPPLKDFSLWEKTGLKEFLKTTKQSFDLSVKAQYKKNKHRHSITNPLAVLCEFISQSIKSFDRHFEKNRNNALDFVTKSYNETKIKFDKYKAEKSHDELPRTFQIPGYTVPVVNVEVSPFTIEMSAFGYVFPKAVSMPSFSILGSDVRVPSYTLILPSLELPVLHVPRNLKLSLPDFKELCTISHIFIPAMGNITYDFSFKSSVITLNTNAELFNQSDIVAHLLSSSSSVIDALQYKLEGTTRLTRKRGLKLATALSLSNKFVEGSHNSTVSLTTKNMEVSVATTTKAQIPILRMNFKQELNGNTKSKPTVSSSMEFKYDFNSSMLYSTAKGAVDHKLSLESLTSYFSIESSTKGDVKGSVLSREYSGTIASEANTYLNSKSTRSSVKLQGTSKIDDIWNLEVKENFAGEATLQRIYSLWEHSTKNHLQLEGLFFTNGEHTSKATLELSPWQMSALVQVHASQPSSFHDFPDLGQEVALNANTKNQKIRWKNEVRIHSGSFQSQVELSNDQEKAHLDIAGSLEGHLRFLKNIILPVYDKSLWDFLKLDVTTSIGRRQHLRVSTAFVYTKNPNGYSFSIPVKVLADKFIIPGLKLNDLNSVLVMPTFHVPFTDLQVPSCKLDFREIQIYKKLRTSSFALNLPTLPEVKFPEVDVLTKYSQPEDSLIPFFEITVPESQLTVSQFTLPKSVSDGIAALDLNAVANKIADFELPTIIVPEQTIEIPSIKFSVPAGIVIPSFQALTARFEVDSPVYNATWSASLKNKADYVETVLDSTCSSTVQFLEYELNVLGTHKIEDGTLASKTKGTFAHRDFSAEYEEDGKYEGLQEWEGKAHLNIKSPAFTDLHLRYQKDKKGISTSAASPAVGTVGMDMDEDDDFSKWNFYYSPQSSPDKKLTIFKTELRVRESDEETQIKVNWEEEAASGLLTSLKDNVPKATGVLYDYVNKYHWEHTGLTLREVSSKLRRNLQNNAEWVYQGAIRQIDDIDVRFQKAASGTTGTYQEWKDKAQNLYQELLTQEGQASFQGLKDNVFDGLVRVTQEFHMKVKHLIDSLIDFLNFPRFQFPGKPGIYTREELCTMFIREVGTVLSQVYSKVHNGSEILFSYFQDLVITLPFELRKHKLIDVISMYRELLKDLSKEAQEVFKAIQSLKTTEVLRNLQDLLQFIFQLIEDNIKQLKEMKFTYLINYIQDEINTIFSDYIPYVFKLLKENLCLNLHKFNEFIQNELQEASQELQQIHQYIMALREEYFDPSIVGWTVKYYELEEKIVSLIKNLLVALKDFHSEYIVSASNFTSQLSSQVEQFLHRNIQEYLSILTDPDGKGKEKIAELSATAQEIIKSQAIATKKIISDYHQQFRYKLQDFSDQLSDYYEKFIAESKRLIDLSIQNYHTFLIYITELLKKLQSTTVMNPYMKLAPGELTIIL
As for `COc1cccc(C(=O)Nc2ccc3c(c2)CC(NS(=O)(=O)c2ccccc2)C3)c1-c1ccc(Cl)cc1` (stereo not given) [4'-Chloro-6-methoxy-biphenyl-2-carboxylic acid (2-benzenesulfonylamino-indan-5-yl)-amide], 2 nM corresponded to half-maximal inhibition (IC50). Next, `COc1cccc(C(=O)Nc2ccc3c(c2)CC(NS(C)(=O)=O)C3)c1-c1ccc(Cl)cc1` (stereo not given) [4'-Chloro-6-methoxy-biphenyl-2-carboxylic acid (2-methanesulfonylamino-indan-5-yl)-amide]: 15 nM; `Cc1cccc(C(=O)Nc2ccc3c(c2)CC(NS(=O)(=O)c2ccccc2)C3)c1-c1ccc(Cl)cc1` (stereo not given) [4'-Chloro-6-methyl-biphenyl-2-carboxylic acid (2-benzenesulfonylamino-indan-5-yl)-amide]: 2.4 nM. Next, `Cc1cccc(C(=O)Nc2ccc3c(c2)CC(NS(C)(=O)=O)C3)c1-c1ccc(Cl)cc1` (stereo not given) [4'-Chloro-6-methyl-biphenyl-2-carboxylic acid (2-methanesulfonylamino-indan-5-yl)-amide]: 6.6 nM. Next, `Cc1cccc(C(=O)Nc2ccc3c(c2)CCC(NS(C)(=O)=O)CC3)c1-c1ccc(Cl)cc1` (stereo not given) [4'-Chloro-6-methyl-biphenyl-2-carboxylic acid (7-methanesulfonylamino-6,7,8,9-tetrahydro-5H-benzocyclohepten-2-yl)-amide]: 5 nM; `Cc1cccc(C(=O)Nc2ccc3c(c2)CC(CNS(C)(=O)=O)C3)c1-c1ccc(Cl)cc1` (stereo not given) [4'-Chloro-6-methyl-biphenyl-2-carboxylic acid [2-(methanesulfonylamino-methyl)-indan-5-yl]-amide]: 16 nM; `Cc1cccc(C(=O)Nc2ccc3c(c2)CC(NS(=O)(=O)c2cccs2)C3)c1-c1ccc(Cl)cc1` (stereo not given) [4'-Chloro-6-methyl-biphenyl-2-carboxylic acid [2-(thiophene-2-sulfonylamino)-indan-5-yl]-amide]: 3 nM.

On to `Cc1cccc(C(=O)Nc2ccc3c(c2)CC(NS(=O)(=O)c2ccccc2)C3)c1-c1ccc(C#N)cc1` (stereo not given) [4'-Cyano-6-methyl-biphenyl-2-carboxylic acid (2-benzenesulfonylamino-indan-5-yl)-amide], for which the 50% inhibitory concentration (IC50) came out at 5.5 nM.

Consider `Cc1cccc(C(=O)Nc2ccc3c(c2)CC(NS(=O)(=O)c2ccccc2)C3)c1-c1ccc(F)cc1` (stereo not given) [4'-Fluoro-6-methyl-biphenyl-2-carboxylic acid (2-benzenesulfonylamino-indan-5-yl)-amide], for which 1.2 nM corresponded to half-maximal inhibition (IC50).

`Cc1cccc(C(=O)Nc2ccc3c(c2)CC(NS(C)(=O)=O)C3)c1-c1ccc(F)cc1` (stereo not given) [4'-Fluoro-6-methyl-biphenyl-2-carboxylic acid (2-methanesulfonylamino-indan-5-yl)-amide] registered an IC50 of 8.3 nM. For `Cc1cccc(C(=O)Nc2ccc3c(c2)CC(NS(=O)(=O)c2cccs2)C3)c1-c1ccc(F)cc1` (stereo not given) [4'-Fluoro-6-methyl-biphenyl-2-carboxylic acid [2-(thiophene-2-sulfonylamino)-indan-5-yl]-amide] the value was 1.4 nM; for `CC(=O)NC1Cc2ccc(NC(=O)c3ccccc3-c3ccc(C(F)(F)F)cc3)cc2C1` (stereo not given) [4'-Trifluoromethyl-biphenyl-2-carboxylic acid (2-acetylamino-indan-5-yl)-amide], 120 nM.

Turning to `O=C(Nc1ccc2c(c1)CC(NS(=O)(=O)c1ccccc1)C2)c1ccccc1-c1ccc(C(F)(F)F)cc1` (stereo not given) [4'-Trifluoromethyl-biphenyl-2-carboxylic acid (2-benzenesulfonylamino-indan-5-yl)-amide], the half-inhibitory concentration (IC50) is 1.3 nM. For `O=C(Nc1ccc2c(c1)C[C@@H](NS(=O)(=O)c1ccccc1)C2)c1ccccc1-c1ccc(C(F)(F)F)cc1` [4'-Trifluoromethyl-biphenyl-2-carboxylic acid (2-benzenesulfonylamino-indan-5-yl)-amide] the value was 42 nM.

As to `O=C(NC1Cc2ccc(NC(=O)c3ccccc3-c3ccc(C(F)(F)F)cc3)cc2C1)c1ccccc1` (stereo not given) [4'-Trifluoromethyl-biphenyl-2-carboxylic acid (2-benzoylamino-indan-5-yl)-amide], 270 nM corresponded to half-maximal inhibition (IC50). With `O=C(Nc1ccc2c(c1)CC(NCc1ccccc1)C2)c1ccccc1-c1ccc(C(F)(F)F)cc1` (stereo not given) [4'-Trifluoromethyl-biphenyl-2-carboxylic acid (2-benzylamino-indan-5-yl)-amide], the 50% inhibitory concentration (IC50) was found to be 340 nM. For `CS(=O)(=O)NC1Cc2ccc(NC(=O)c3ccccc3-c3ccc(C(F)(F)F)cc3)cc2C1` (stereo not given) [4'-Trifluoromethyl-biphenyl-2-carboxylic acid (2-methanesulfonylamino-indan-5-yl)-amide], half-maximal inhibition (IC50) required 60 nM. For `CN(C)C(=O)NC1Cc2ccc(NC(=O)c3ccccc3-c3ccc(C(F)(F)F)cc3)cc2C1` (stereo not given) [4'-Trifluoromethyl-biphenyl-2-carboxylic acid [2-(3,3-dimethyl-ureido)-indan-5-yl]-amide] the value was 120 nM. For `Cc1cc(C)c(-c2ccc(C(F)(F)F)cc2)c(C(=O)Nc2ccc3c(c2)C[C@@H](NS(=O)(=O)c2cccs2)C3)c1` [4,6-Dimethyl-4'-trifluoromethyl-biphenyl-2-carboxylic acid [2-(thiophene-2-sulfonylamino)-indan-5-yl]-amide] the value was 2.6 nM; for `Cc1cc(C)c(-c2ccc(C(F)(F)F)cc2)c(C(=O)Nc2ccc3c(c2)C[C@H](NS(=O)(=O)c2cccs2)C3)c1` [4,6-Dimethyl-4'-trifluoromethyl-biphenyl-2-carboxylic acid [2-(thiophene-2-sulfonylamino)-indan-5-yl]-amide], 1 nM. In turn, `COC(=O)N1CCN([C@@H]2Cc3ccc(NC(=O)c4cccc(C)c4-c4ccc(C(F)(F)F)cc4)cc3C2)CC1` [4-{5-[(6-Methyl-4'-trifluoromethyl-biphenyl-2-carbonyl)-amino]-indan-2-yl}-piperazine-1-carboxylic acid methyl ester] had an IC50 of 43 nM.

In the case of `COC(=O)N1CCN([C@H]2Cc3ccc(NC(=O)c4cccc(C)c4-c4ccc(C(F)(F)F)cc4)cc3C2)CC1` [4-{5-[(6-Methyl-4'-trifluoromethyl-biphenyl-2-carbonyl)-amino]-indan-2-yl}-piperazine-1-carboxylic acid methyl ester], the concentration for half-maximal inhibition (IC50) was 1.8 nM. `Cc1ccc(-c2c(C)cccc2C(=O)Nc2ccc3c(c2)CC(NS(=O)(=O)c2ccccc2)C3)cc1` (stereo not given) [6,4'-Dimethyl-biphenyl-2-carboxylic acid (2-benzenesulfonylamino-indan-5-yl)-amide] came in with an IC50 of 2.5 nM.

Compound `Cc1cccc(C(=O)Nc2ccc3c(c2)C[C@@H](NS(C)(=O)=O)C3)c1-c1ccc(C(F)(F)F)cc1` [6-Methyl-4'-trifluoromethyl-biphenyl-2-carboxylic acid (2-methanesulfonylamino-indan-5-yl)-amide] gave an IC50 of 8.8 nM. In turn, `Cc1cccc(C(=O)Nc2ccc3c(c2)C[C@H](NS(C)(=O)=O)C3)c1-c1ccc(C(F)(F)F)cc1` [6-Methyl-4'-trifluoromethyl-biphenyl-2-carboxylic acid (2-methanesulfonylamino-indan-5-yl)-amide] gave an IC50 of 1.8 nM. Next, `Cc1cccc(C(=O)Nc2ccc3c(c2)CCC(NS(C)(=O)=O)CC3)c1-c1ccc(C(F)(F)F)cc1` (stereo not given) [6-Methyl-4'-trifluoromethyl-biphenyl-2-carboxylic acid (7-methanesulfonylamino-6,7,8,9-tetrahydro-5H-benzocyclohepten-2-yl)-amide]: 2.3 nM; `Cc1cccc(C(=O)Nc2ccc3c(c2)CC(CNS(C)(=O)=O)C3)c1-c1ccc(C(F)(F)F)cc1` (stereo not given) [6-Methyl-4'-trifluoromethyl-biphenyl-2-carboxylic acid [2-(methanesulfonylamino-methyl)-indan-5-yl]-amide]: 6.5 nM; `Cc1cccc(C(=O)Nc2ccc3c(c2)C[C@H](NS(=O)(=O)c2cccs2)C3)c1-c1ccc(C(F)(F)F)cc1` [6-Methyl-4'-trifluoromethyl-biphenyl-2-carboxylic acid [2-(thiophene-2-sulfonylamino)-indan-5-yl]-amide]: 0.9 nM. Next, `Cc1cccc(C(=O)Nc2ccc3c(c2)CCC(NS(=O)(=O)c2cccs2)CC3)c1-c1ccc(C(F)(F)F)cc1` (stereo not given) [6-Methyl-4'-trifluoromethyl-biphenyl-2-carboxylic acid [7-(thiophene-2-sulfonylamino)-6,7,8,9-tetrahydro-5H-benzocyclohepten-2-yl]-amide]: 1.6 nM. For `Cc1cccc(C(=O)Nc2ccc3c(c2)CC(CNS(=O)(=O)c2cccs2)C3)c1-c1ccc(C(F)(F)F)cc1` (stereo not given) [6-Methyl-4'-trifluoromethyl-biphenyl-2-carboxylic acid {2-[(thiophene-2-sulfonylamino)-methyl]-indan-5-yl}-amide] the value was 1.9 nM; for `COC(=O)NCCC1Cc2ccc(NC(=O)c3cccc(C)c3-c3ccc(C(F)(F)F)cc3)cc2C1` (stereo not given) [(2-{5-[(6-Methyl-4'-trifluoromethyl-biphenyl-2-carbonyl)-amino]-indan-2-yl}-ethyl)-carbamic acid methyl ester], 10 nM; for `COC(=O)N[C@@H]1Cc2ccc(NC(=O)c3cccc(C)c3-c3ccc(C(F)(F)F)cc3)cc2C1` [(R)-methyl 5-(6-methyl-4'-(trifluoromethyl)biphenyl-2-ylcarboxamido)-2,3-dihydro-1H-inden-2-ylcarbamate], 6.4 nM. As to `Cc1cccc(C(=O)Nc2ccc3c(c2)C[C@@H](NCc2ccccn2)C3)c1-c1ccc(C(F)(F)F)cc1` [(S)-6-methyl-N-(2-(pyridin-2-ylmethylamino)-2,3-dihydro-1H-inden-5-yl)-4'-(trifluoromethyl)biphenyl-2-carboxamide], half-maximal inhibition (IC50) required 1.7 nM.

Compound `O=C(Nc1ccc2c(c1)CC(NS(=O)(=O)c1ccccc1)C2)c1ccccc1-c1ccccc1` (stereo not given) [Biphenyl-2-carboxylic acid (2-benzenesulfonylamino-indan-5-yl)-amide] gave a half-maximal inhibitory concentration (IC50) of 12 nM.

In turn, `COC(=O)NC1CCc2ccc(NC(=O)c3cccc(C)c3-c3ccc(Cl)cc3)cc2CC1` (stereo not given) [{2-[(4'-Chloro-6-methyl-biphenyl-2-carbonyl)-amino]-6,7,8,9-tetrahydro-5H-benzocyclohepten-7-yl}-carbamic acid methyl ester] returned a half-inhibitory concentration (IC50) of 2 nM.

The values are drawn from BindingDB's records for doi:10.1021/jm010294e (Novartis Institute For Biomedical Reasearch, 2001).
